Calls of active or inactive are those of the source. The rule behind the calls is not given here.
What was measured:
[1] = target: T1, Tyrosine-protein kinase Blk (Homo sapiens, UniProt P51451); test: Displacement of K-4 tracer from wild type BLK in HEK293T cells expressing NanoLuc preincubated for 3 hrs followed by tracer addition and measured after 1 hr by NanoBRET analysis; type: cell-based
BaF3 [2] = test: Inhibition of biotinylated osimertinib binding to EGFR L858R mutant in mouse BaF3 cells at 0.2 to 10 uM preincubated for 3 hrs followed by biotinylated osimertinib addition and incubated overnight by competitive pulldown based Western blot analysis; type: cell-based; conditions: dose 0.2-10 µM
[3] = target: Epidermal growth factor receptor (Homo sapiens, UniProt P00533, L858R); test: Inhibition of EGFR L858R mutant (unknown origin) harboring cysteine at alphaD-1 position by LanthaScreen assay
[4] = target: T2, Tyrosine-protein kinase BTK (Homo sapiens, UniProt Q06187); test: Displacement of K-10 tracer from wild type BTK in HEK293T cells expressing NanoLuc preincubated for 3 hrs followed by tracer addition and measured after 1 hr by NanoBRET analysis; type: cell-based
T2 sequence (Q06187 whole entry): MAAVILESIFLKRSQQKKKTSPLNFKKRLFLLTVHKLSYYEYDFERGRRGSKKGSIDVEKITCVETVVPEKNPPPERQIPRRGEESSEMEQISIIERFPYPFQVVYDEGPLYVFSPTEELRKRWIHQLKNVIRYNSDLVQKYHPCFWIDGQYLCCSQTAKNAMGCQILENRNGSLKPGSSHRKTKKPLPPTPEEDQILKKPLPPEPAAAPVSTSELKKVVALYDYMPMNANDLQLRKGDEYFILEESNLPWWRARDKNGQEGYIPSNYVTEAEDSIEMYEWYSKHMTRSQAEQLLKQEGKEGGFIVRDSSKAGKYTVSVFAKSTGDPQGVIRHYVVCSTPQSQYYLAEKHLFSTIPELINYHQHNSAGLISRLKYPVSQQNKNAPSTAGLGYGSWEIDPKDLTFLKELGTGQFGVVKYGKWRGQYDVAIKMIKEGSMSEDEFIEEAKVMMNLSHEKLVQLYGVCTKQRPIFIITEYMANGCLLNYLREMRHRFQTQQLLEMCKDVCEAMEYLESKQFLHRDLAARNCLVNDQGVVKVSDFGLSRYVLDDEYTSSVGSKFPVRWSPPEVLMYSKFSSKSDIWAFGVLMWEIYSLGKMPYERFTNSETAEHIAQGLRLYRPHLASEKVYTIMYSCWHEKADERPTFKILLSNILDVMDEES

[5] = target: Mitogen-activated protein kinase 1 and 3 (ERK2 and ERK1) (Mus musculus) (UniProt P63085+Q63844); test: Inhibition of ERK1/2 phosphorylation at T202/Y204 residues in mouse Ba/F3 EGFR-L858R cells at 0.2 to 10 uM incubated for 6 hrs by Western blot analysis; type: cell-based; conditions: dose 0.2-10 µM
Mitogen-activated protein kinase 1 and 3 (ERK2 and ERK1) (Mus musculus), sequence (P63085 whole entry, looked up): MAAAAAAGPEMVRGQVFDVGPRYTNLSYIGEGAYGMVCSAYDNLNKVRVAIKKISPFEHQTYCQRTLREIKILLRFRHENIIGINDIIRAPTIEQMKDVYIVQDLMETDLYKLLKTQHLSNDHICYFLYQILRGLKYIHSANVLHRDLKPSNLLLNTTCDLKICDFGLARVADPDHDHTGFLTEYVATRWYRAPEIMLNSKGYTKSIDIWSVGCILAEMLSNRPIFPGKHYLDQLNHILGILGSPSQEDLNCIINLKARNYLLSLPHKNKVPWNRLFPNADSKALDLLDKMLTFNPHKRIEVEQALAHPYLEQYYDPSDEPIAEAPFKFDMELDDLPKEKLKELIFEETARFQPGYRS
Mitogen-activated protein kinase 1 and 3 (ERK2 and ERK1) (Mus musculus), sequence (Q63844 whole entry, looked up): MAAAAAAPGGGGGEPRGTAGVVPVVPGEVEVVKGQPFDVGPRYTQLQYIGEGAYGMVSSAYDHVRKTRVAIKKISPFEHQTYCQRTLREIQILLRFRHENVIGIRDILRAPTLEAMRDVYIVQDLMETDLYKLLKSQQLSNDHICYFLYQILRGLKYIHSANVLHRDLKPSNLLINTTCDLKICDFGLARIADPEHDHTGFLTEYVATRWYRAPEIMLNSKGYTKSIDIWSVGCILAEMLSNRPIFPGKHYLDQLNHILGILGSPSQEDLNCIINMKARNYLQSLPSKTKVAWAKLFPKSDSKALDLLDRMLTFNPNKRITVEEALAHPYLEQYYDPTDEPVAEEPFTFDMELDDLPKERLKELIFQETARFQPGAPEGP

[6] = target: T2, Tyrosine-protein kinase BTK; test: Inhibition of biotinylated ibrutinib binding to BTK in human MINO cells at 0.2 to 10 uM preincubated for 3.5 hrs followed by biotinylated ibrutinib addition and incubated overnight by competitive pulldown based Western blot analysis; type: cell-based; conditions: dose 0.2-10 µM
[7] = target: T1, Tyrosine-protein kinase Blk; test: Inhibition of BLK (unknown origin) harboring cysteine at alphaD-1 position by LanthaScreen assay
[8] = target: Epidermal growth factor receptor (Mus musculus) (UniProt Q01279); test: Inhibition of EGFR phosphorylation at Y1068 residue in mouse Ba/F3 EGFR-L858R cells at 0.2 to 10 uM incubated for 6 hrs by Western blot analysis; type: cell-based; conditions: dose 0.2-10 µM
Epidermal growth factor receptor (Mus musculus), sequence (Q01279 whole entry): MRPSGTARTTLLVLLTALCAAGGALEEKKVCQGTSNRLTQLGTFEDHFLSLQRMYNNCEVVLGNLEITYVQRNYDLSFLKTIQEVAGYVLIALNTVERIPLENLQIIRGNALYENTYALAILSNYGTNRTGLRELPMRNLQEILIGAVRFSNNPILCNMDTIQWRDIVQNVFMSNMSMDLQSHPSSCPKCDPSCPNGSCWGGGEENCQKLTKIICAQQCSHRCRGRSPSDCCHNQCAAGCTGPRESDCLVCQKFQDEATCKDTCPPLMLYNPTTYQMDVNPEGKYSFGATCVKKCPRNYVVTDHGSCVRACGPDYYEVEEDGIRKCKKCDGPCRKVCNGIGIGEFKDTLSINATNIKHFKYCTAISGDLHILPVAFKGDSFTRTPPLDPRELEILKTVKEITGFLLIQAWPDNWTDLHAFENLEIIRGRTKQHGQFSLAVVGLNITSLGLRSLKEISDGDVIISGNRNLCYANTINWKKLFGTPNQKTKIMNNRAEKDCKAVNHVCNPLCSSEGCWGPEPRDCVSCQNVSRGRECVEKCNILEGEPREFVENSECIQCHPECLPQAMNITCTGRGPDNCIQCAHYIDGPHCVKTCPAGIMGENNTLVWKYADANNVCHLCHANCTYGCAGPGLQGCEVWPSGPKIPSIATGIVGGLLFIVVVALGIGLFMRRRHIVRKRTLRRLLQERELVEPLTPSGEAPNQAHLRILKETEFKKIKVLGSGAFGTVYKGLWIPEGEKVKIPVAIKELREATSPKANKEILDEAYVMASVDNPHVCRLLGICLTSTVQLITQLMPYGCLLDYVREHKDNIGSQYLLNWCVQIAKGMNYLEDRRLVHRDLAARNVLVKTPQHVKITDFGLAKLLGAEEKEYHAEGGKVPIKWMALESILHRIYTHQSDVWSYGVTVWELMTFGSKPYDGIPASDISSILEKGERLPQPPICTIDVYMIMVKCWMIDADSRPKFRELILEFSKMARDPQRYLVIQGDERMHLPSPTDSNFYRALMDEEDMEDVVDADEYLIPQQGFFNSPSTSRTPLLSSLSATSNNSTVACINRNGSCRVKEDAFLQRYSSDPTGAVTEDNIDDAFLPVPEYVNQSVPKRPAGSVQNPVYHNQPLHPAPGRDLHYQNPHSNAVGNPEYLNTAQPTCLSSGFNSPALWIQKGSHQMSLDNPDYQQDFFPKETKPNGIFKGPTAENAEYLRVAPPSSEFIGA

[9] = target: RAC-alpha serine/threonine-protein kinase (Mus musculus) (UniProt P31750); test: Inhibition of AKT phosphorylation at S473 residue in mouse Ba/F3 EGFR-L858R cells at 0.2 to 10 uM incubated for 6 hrs by Western blot analysis; type: cell-based; conditions: dose 0.2-10 µM
RAC-alpha serine/threonine-protein kinase (Mus musculus), sequence (P31750 whole entry): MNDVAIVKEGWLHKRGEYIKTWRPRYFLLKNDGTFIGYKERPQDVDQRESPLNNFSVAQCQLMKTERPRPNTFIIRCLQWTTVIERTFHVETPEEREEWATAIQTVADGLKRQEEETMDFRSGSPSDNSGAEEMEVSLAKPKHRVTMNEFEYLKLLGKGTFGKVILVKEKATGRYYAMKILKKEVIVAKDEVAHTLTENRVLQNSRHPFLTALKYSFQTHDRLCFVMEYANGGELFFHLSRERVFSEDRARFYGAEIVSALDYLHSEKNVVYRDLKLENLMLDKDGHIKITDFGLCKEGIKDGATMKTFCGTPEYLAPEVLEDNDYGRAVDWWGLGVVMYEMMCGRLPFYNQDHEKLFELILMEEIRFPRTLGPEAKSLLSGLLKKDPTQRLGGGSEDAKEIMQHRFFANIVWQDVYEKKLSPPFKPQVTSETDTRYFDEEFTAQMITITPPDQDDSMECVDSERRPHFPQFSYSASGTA

[10] = target: T2, Tyrosine-protein kinase BTK; test: Inhibition of BTK (unknown origin) harboring cysteine at alphaD-1 position by LanthaScreen assay
[11] = target: T3, Tyrosine-protein kinase JAK3 (Homo sapiens, UniProt P52333); test: Inhibition of JAK3 (unknown origin) harboring cysteine at alphaD-1 position by LanthaScreen assay
T3 sequence (P52333 whole entry): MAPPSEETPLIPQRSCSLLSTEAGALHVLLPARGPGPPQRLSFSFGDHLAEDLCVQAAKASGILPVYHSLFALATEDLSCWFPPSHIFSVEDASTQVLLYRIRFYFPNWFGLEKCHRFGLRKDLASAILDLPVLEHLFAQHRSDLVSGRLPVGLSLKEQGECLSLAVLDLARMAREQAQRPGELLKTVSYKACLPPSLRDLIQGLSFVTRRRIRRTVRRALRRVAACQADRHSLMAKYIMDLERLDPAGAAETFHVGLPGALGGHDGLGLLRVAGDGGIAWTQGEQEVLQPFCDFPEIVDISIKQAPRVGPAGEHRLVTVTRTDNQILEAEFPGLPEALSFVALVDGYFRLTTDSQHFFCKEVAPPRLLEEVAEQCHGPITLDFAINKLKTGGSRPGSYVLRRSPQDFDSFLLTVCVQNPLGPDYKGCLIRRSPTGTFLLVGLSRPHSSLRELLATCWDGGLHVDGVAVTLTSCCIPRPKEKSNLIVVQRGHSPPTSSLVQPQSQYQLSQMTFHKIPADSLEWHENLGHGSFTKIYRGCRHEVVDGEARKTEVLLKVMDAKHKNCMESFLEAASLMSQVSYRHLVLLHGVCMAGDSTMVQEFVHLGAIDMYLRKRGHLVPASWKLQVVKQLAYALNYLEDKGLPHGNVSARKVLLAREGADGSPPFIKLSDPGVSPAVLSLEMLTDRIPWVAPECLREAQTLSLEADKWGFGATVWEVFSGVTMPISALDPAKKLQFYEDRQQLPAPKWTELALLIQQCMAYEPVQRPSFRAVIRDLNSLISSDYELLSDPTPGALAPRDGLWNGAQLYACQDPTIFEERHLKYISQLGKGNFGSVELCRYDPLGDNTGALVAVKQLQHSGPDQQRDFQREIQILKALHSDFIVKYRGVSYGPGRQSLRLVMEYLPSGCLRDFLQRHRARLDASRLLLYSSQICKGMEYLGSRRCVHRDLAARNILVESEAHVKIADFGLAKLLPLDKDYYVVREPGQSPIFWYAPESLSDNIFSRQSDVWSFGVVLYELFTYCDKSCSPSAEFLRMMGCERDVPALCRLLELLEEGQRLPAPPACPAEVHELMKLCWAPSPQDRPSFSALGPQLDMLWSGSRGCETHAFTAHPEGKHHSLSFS

cells = conditions: Mus musculus, Ba/F3 EGFR-L858R, 72 h
Description: Antiproliferative activity against mouse Ba/F3 EGFR-L858R cells assessed as inhibition of cell proliferation measured after 3 days by CellTiter-Glo assay

BaF3 [12] = test: cells; conditions: Mus musculus, BaF3, 72 h
[13] = system: Tyrosine-protein kinase BTK (Homo sapiens), Q06187 [C481S]; test: Displacement of K-10 tracer from BTK C481S mutant in HEK293T cells expressing NanoLuc preincubated for 3 hrs followed by tracer addition and measured after 1 hr by NanoBRET analysis; type: cell-based; conditions: time 4.0 hrs
Tyrosine-protein kinase BTK (Homo sapiens), Q06187 [C481S], sequence (Q06187 whole entry C481S, the tested form may be a part): as the sequence (Q06187 whole entry) above, with C481S counted along it

[14] = target: T4, Tyrosine-protein kinase JAK3 (Homo sapiens) (UniProt P52333); test: Binding affinity to JAK3 JH1 domain (unknown origin) assessed as covalent bond formation by measuring cysteine 909-labeling by mass spectrometry analysis relative to control
T4 sequence (whole entry): T3 sequence (P52333 whole entry)

[15] = target: T2, Tyrosine-protein kinase BTK; test: Binding affinity to human BTK harboring cysteine at alphaD-1 position at 10 uM by Kinomescan analysis
[16] = target: Epidermal growth factor receptor (Homo sapiens) (UniProt P00533); test: Binding affinity to N-terminal protease cleavable His-GST tagged wild type human EGFR (696 to 1022 residues) expressed as baculovirus infected Sf9 cells assessed as mass shift at 10 fold molar excess incubated for 2 hrs by LC-MS/MS analysis
HEK293T = test: Displacement of K-4 tracer from BLK C319S mutant in HEK293T cells expressing NanoLuc preincubated for 3 hrs followed by tracer addition and measured after 1 hr by NanoBRET analysis; type: cell-based; conditions: Homo sapiens, time 4.0 hrs
[17] = target: Epidermal growth factor receptor (Homo sapiens) (UniProt P00533); test: Binding affinity to human EGFR harboring cysteine at alphaD-1 position at 10 uM by Kinomescan analysis
[18] = target: T5, Dual specificity mitogen-activated protein kinase kinase 5 (Homo sapiens, UniProt Q13163); test: Inhibition of MEK5 (unknown origin) by LanthaScreen assay
T5 sequence (Q13163 whole entry): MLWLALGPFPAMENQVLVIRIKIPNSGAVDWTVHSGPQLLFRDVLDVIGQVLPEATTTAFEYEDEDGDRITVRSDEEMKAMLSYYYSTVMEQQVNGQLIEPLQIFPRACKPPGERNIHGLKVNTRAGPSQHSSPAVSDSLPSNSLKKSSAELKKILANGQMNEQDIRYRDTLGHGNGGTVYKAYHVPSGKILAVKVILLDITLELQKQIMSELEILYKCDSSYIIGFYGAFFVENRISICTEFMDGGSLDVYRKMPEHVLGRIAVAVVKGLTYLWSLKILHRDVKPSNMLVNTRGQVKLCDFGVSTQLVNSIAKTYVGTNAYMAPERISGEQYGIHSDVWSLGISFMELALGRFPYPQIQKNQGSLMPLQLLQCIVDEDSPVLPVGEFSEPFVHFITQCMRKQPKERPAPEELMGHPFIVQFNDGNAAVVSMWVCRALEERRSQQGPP

[19] = target: T6, Dual specificity mitogen-activated protein kinase kinase 7 (Homo sapiens) (UniProt O14733); test: Binding affinity to human MKK7 harboring cysteine at alphaD-1 position at 10 uM by Kinomescan analysis
T6 sequence (whole entry): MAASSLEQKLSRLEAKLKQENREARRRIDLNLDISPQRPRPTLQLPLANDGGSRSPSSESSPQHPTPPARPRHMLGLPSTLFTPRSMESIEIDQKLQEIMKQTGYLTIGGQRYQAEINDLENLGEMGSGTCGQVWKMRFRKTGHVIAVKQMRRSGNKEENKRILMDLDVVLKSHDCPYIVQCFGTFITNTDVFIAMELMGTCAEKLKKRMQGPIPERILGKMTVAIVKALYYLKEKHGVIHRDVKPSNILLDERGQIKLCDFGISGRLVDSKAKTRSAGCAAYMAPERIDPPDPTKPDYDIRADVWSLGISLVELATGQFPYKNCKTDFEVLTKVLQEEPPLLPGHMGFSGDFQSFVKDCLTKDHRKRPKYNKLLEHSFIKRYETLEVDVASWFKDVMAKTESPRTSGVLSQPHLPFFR

[20] = target: T4, Tyrosine-protein kinase JAK3 (Homo sapiens); test: Binding affinity to human JAK3 JH1 domain harboring cysteine at alphaD-1 position at 10 uM by Kinomescan analysis
BaF3 [21] = test: Inhibition of biotinylated osimertinib binding to EGFR L858R mutant in mouse BaF3 cells preincubated for 3 hrs followed by biotinylated osimertinib addition and incubated overnight by competitive pulldown based Western blot analysis; type: cell-based; conditions: dose 0.2-10 µM
[22] = system: Epidermal growth factor receptor (Homo sapiens), P00533 [L858R,T790M]; test: Binding affinity to Cys797 residue of trypsin digested EGFR L858R/T790M mutant (unknown origin) by Nano-LC-MS/MS analysis
[23] = target: T2, Tyrosine-protein kinase BTK; test: Binding affinity to BTK (unknown origin) assessed as covalent bond formation by measuring cysteine 481-labeling by mass spectrometry analysis relative to control

T1 sequence (P51451 whole entry): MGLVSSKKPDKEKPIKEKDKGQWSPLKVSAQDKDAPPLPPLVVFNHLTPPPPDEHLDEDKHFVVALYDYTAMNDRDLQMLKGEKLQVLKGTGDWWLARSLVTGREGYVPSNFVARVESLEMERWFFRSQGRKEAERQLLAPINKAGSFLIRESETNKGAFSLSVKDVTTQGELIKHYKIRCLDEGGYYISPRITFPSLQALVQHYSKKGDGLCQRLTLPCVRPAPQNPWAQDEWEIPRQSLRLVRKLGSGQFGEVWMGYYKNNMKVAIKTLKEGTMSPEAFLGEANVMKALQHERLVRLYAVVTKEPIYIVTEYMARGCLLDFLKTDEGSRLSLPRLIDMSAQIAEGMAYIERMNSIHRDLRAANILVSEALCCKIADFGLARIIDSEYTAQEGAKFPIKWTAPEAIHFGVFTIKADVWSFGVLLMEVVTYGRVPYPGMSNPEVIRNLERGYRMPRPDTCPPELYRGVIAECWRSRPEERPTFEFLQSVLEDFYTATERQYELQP

IC50 [3] | IC50 [4] | inhibition [5] | inhibition [6] | inhibition [8] | inhibition [9] | IC50 [10] | IC50 [11] | IC50 (cells) | IC50 (BaF3 [12]) | Structure (SMILES) | other results
> 10000 nM | > 30000 nM | inactive | inactive | inactive | inactive | > 10000 nM | > 10000 nM |  |  | CCC(=O)N1CC(Oc2nn(C(C)(C)C)c3ncnc(N)c23)C1 | IC50 [1]: > 30000 nM; inhibition (BaF3 [2]): inactive; IC50 [7]: > 10000 nM
 |  |  |  |  |  |  |  | 10600 nM | > 10000 nM | C=CC(=O)N1CCCC(Oc2nn(C(C)(C)C)c3ncnc(N)c23)C1 (centres undefined) | 
 |  |  |  |  |  |  |  | 2400 nM | 5990 nM | C=CC(=O)N1CCC(Oc2nn(C(C)(C)C)c3ncnc(N)c23)C1 (centres undefined) | 
 |  |  |  |  |  |  |  | 604 nM | 3620 nM | C=CC(=O)N1CCC(Oc2nn(C(C)(C)C)c3ncnc(N)c23)CC1 | 
242 nM | 865 nM | Active | Active | Active | Active | 105 nM | 59.2 nM |  |  | C=CC(=O)N1CC(Oc2nn(C(C)(C)C)c3ncnc(N)c23)C1 | Activity [13]: inactive; Activity [14]: 60%; Activity [15]: Active; Activity [16]: Active; Activity (HEK293T): inactive; Activity [17]: Active; IC50 [18]: > 10000 nM; Activity [19]: Active; Activity [20]: Active; inhibition (BaF3 [21]): Dose-Dependent Effect; Activity [22]: Active; Activity [23]: 80%

Structure (SMILES) | IC50 [3] | IC50 [4] | inhibition [5] | inhibition [6] | inhibition [8] | inhibition [9] | IC50 [10] | IC50 [11] | IC50 (cells) | IC50 (BaF3 [12]) | other results
C=CC(=O)Nc1cc(Nc2nccc(-c3cn(C)c4ccccc34)n2)c(OC)cc1N(C)CCN(C)C [OSIMERTINIB] |  |  |  |  |  |  |  |  | 2.4 nM | 19 nM | 

Reference: ChEMBL document CHEMBL5528037 (J Med Chem, 2024)
